According to patent publication US7820716B2 (Mai De Ltd, priority 2007, dated 2010):

Legend:
[1] = tested on: norepinephrine uptake; details: background statement; cited from earlier work
[2] = tested on: serotonin uptake; details: background statement; cited from earlier work
[3] = Stability study of bulk material, stability-indicating HPLC; assay type: physicochemical
Protocol: Changes are monitored using a stability-indicating HPLC method. Results were calculated by normalized peak area (npa). Degradants are identified by comparison of their relative retention times against impurity standards.

| Compound | norepinephrine uptake [1] | serotonin uptake [2] | polymorph and chemical stability demonstrated ([3]; elevated temperatures and humidity (40° C./75%)) | polymorph stability and formation of known and unknown degradants ([3]; stored for over 3 to 6 months under normal conditions of temperature and humidity) |
| --- | --- | --- | --- | --- |
| CN(C)CC(c1ccc(O)cc1)C1(O)CCCCC1 (stereo not shown) [O-desmethyl venlafaxine] | inhibit | inhibit |  |  |
| (1-[2-(dimethylamino)-1-(4-phenol)ethyl]-cyclohexanol succinate [Form V] |  |  | 2 months | stable |
